Reference: patent publication US7888025B2, “Intestinal folate transporter method” (Albert Einstein College of Medicine of Yeshiva University, priority 2007, dated 2011)
“Also recorded” adds a separate entry of the source. Where two headings read alike, the source gives them in different places.

How the values were obtained:
G21 (PCFT) [1] = biological target: T1, G21 (PCFT) (Homo sapiens, UniProt Q96NT5); test: Uptake of tritiated folates in G21 cRNA-injected Xenopus oocytes; assay type: cell-based
T1 construct: expressed in transfected cells; host or cells: Xenopus laevis oocytes injected with capped G21 cRNA (pSPT64, SP6)
T1 sequence (Q96NT5 1-459): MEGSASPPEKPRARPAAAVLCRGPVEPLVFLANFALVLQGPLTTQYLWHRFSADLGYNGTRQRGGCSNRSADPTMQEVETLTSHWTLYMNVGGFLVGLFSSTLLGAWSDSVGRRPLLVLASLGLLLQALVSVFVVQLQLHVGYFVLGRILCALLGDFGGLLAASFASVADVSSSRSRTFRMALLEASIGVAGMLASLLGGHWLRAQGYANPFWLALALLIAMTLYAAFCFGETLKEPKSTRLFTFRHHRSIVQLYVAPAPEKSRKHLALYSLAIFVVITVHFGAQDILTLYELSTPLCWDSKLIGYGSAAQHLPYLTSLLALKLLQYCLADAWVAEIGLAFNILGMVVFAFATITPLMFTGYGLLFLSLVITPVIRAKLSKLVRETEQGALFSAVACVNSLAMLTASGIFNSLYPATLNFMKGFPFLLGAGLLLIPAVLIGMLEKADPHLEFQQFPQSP
Experimental: Uptake studies in Xenopus oocytes. Defolliculated Xenopus laevis oocytes were prepared as described (Jansen and Akabas, 2006) and injected with 50 nl of water or G21 cRNA (30 ng). Radiotracer uptake was determined 3 or 4 days later. Seven to 10 oocytes were incubated in 500 μl of Modified Barth's Solution (MBS, in mM, 88 NaCl, 2.4 NaHCO3, 2.5 Na pyruvate, 1 KCl, 0.82 MgSO4, 0.41 CaCl2, 0.3 Ca(NO3)2, 15 MES or HEPES) and uptake of tritiated folate substrates assessed at room temperature. Uptake was halted by the addition of ice-cold MBS (pH 7.5). Oocytes were washed 10 times thereafter, and solubilized with 10% SDS for measurement of radioactivity. To collapse the pH gradient across the oocyte membrane, seven to 10 oocytes were incubated in MBS (pH 5.5) containing 0, 10, 20, 40, 60 μM FCCP for 20 min, and uptake of transport substrates assessed at pH 5.5.

G21 (PCFT) [2] = biological target: T1, G21 (PCFT); test: Two-electrode voltage-clamp electrophysiology in G21 cRNA-injected Xenopus oocytes; assay type: cell-based
Experimental: Electrophysiological analyses in Xenopus oocytes. Defolliculated oocytes were injected with 50 nl of water (control) or G21 cRNA (50 ng), and kept at 17° C. in horse serum medium (in mM, 82.5 NaCl, 2.5 KCl, 1 MgCl2, 2.3 CaCl2, 5 HEPES, 5% horse serum, pH 7.5). Electrophysiological recordings were conducted 3-7 days after cRNA injection in buffer (in mM, 90 NaCl, 1 KCl, 1 MgCl2, 1.8 CaCl2, 5 TRIS, 5 MES) as described previously (Jansen and Akabas, 2006). Oocyte holding potential was −80 mV for Km determination. For current-voltage (I-V) relationships, from a −60 mV holding potential step changes in membrane potential were applied for 2 s in 10 mV increments between −100 and 30 mV in the absence and presence of substrate.

G21 (PCFT) [3] = biological target: T1, G21 (PCFT); test: Inhibition of [3H]folic acid uptake into G21 cRNA-injected Xenopus oocytes; assay type: cell-based
Experimental: Uptake studies in Xenopus oocytes. […] Radiotracer uptake was determined 3 or 4 days later. […] Uptake was halted by the addition of ice-cold MBS (pH 7.5). Oocytes were washed 10 times thereafter, and solubilized with 10% SDS for measurement of radioactivity. To collapse the pH gradient across the oocyte membrane, seven to 10 oocytes were incubated in MBS (pH 5.5) containing 0, 10, 20, 40, 60 μM FCCP for 20 min, and uptake of transport substrates assessed at pH 5.5.

G21 (PCFT) [4] = biological target: T1, G21 (PCFT); test: Inhibition of [3H]folic acid uptake in HepG2 cells stably transfected with G21 cDNA; assay type: cell-based; conditions: 100 μM inhibitor, pH 6.5, HepG2 cells
Experimental: Transfection. Transfection of plasmid DNA was performed in HepG2, HeLa, and Caco2 cells with Lipofectamine 2000 (Invitrogen). HepG2 cells, stably transfected with either pcDNA3.1(+) or pcDNA3.1(+)G21, were generated by G418 selection (600 μg/ml). Double selection with puromycin (5 μg/ml) and hygromycin (50 μg/ml) was adopted to obtain stably transfected Caco-2 cells with both G21-silencing shRNA vectors, or with both non-silencing negative control plasmids.
Transport of folates in HepG2, HeLa and Caco2 cells. Initial uptake of tritiated folates in HepG2, HeLa, or Caco2 cells was assessed using a protocol designed for rapid uptake determinations in cells growing in monolayer culture in liquid scintillation vials (Sharif and Goldman, 2000) except that cells were incubated at pH 7.4 and 37° C. for 20 min before initiation of uptake. Substrate uptake was normalized to protein content.

[5] = biological target: T2, low-pH folate transporter (Homo sapiens, UniProt Q96NT5); conditions: pH 5.5, intestinal and other human cells; cited from earlier work
T2 construct: host or cells: HeLa and other cells
T2 sequence (Q96NT5 1-459): T1 sequence (Q96NT5 1-459)

[6] = biological target: T3, reduced folate carrier (SLC19A1) (Homo sapiens, UniProt P41440); conditions: cited from earlier work
T3 sequence (P41440 1-591): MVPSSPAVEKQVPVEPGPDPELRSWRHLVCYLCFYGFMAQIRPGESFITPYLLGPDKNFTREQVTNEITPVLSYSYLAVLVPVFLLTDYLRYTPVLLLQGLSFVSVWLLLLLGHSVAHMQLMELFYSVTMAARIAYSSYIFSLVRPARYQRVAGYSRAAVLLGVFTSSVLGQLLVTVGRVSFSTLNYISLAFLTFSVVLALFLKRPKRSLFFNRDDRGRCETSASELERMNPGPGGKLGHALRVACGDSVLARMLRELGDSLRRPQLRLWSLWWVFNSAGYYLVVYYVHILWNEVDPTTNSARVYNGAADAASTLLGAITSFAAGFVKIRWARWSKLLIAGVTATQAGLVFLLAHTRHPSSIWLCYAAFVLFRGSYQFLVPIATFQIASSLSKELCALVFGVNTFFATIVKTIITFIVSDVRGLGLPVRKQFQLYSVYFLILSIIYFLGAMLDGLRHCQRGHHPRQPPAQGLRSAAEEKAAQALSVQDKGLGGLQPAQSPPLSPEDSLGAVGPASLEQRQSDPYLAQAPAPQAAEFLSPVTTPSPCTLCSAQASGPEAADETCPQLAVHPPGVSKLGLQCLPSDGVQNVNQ

[7] = tested on: rat jejunum brush border membranes; conditions: read-out: uptake Km, cited from earlier work
HCP1 murine ortholog = biological target: T4, HCP1 murine ortholog (Mus musculus, UniProt Q6PEM8, A402V); conditions: HeLa cells, read-out: Km for [55Fe]hemin uptake; cited from earlier work
T4 construct: host or cells: HeLa cells infected with a cDNA-containing adenovirus vector
T4 sequence (Q6PEM8 1-459 A402V): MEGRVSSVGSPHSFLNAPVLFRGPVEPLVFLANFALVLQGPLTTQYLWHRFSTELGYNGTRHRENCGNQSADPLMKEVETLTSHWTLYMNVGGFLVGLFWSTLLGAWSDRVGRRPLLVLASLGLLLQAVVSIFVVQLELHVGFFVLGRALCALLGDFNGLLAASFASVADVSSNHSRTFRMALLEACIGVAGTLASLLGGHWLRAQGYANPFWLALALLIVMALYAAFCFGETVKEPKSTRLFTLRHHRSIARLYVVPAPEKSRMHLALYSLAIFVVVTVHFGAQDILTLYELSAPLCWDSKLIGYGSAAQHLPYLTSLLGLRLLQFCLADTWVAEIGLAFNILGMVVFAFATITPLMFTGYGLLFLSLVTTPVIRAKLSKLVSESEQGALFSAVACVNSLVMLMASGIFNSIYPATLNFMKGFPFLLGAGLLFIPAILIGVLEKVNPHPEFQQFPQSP

| decrease in Vmax (G21 (PCFT) [1]; over the pH range of 5.5 to 6.5) | uptake Vmax (G21 (PCFT) [1]; pH 5.5, same batch of oocytes) | uptake Vmax (G21 (PCFT) [1]; pH 7.5, same batch of oocytes) | increase in Km (G21 (PCFT) [1]; pH increased from 5.5 to 7.0) | increase in Km (G21 (PCFT) [1]; pH increased from 7.0 to 7.5) | current amplitude larger than (6S)5-MTHF-induced current (G21 (PCFT) [2]; saturating concentrations, same oocyte, pH 5.5) | inhibition at 100 µM (G21 (PCFT) [3]; read-out: inhibition of 2 μM [3H]folic acid uptake, 100 μM inhibitor, pH 6.5, Xenopus oocytes) | inhibition at 100 µM (G21 (PCFT) [4]; read-out: inhibition of 2 μM [3H]folic acid uptake) | inhibitory effect on uptake of 2 μM [3H]folic acid (G21 (PCFT) [3]; 20 μM nonlabeled compound, pH 5.5, 30 min) | inhibition of 2 μM [3H]folic acid uptake (G21 (PCFT) [3]; 100 μM inhibitor, pH 6.5, Xenopus oocytes) | inhibition of 2 μM [3H]folic acid uptake (G21 (PCFT) [4]) | Compound | Ki [5] | Ki [6] | Km ([7]; pH 5.5) | Km ([7]; pH 7.4) | substrate-induced current (G21 (PCFT) [2]; 100 μM hemin, with 0.1% bovine serum albumin or 200 μM arginine) | Km (HCP1 murine ortholog) |
| --- | --- | --- | --- | --- | --- | --- | --- | --- | --- | --- | --- | --- | --- | --- | --- | --- | --- |
| 2.4 fold | 13 pmol/oocyte/hr | 5 pmol/oocyte/hr | 2.6 fold | 18 fold | 39±6% | 92 ± 2% | 90 ± 0.02% |  |  |  | Nc1nc2ncc(CNc3ccc(C(=O)N[C@@H](CCC(=O)O)C(=O)O)cc3)nc2c(=O)[nH]1 [folic acid] | ~0.6 µM | ~200 µM | 0.6 µM | 12.3 µM |  |  |
|  |  |  |  |  |  |  |  | weak inhibitor | 42±7% | 30±5% | hemin |  |  |  |  | no current could be detected; also recorded: unable to detect | 125 µM |
